Literature values in US7723528B2, “Sulfur transfer reagents for oligonucleotide synthesis” (AM Chemicals LLC, priority 2008, dated 2010).

Details: background statement

Row | Hydrolytic stability | Compound
1 | rather low | O=C1SS(=O)(=O)c2ccccc21 [Beaucage reagent, 3H-1,2-benzodithiol-3-one-1,1-dioxide]
2 | rather low | CCOc1nc(=O)ss1 [EDITH, 3-ethoxy-1,2,4-dithiazoline-5-one]
